Literature values, collected in patent US6080725A, “Immunostimulating and vaccine compositions employing saponin analog adjuvants and uses thereof” (priority 1999, dated 2000).
Where two headings read alike, the source gives them in different places.

System: lymphoproliferative test

CC(=O)O[C@@H]1[C@H](O[C@@H]2O[C@@H](CO)[C@H](O)[C@H]2O)[C@@H](O[C@@H]2O[C@@H](C)[C@H](O[C@@H]3OC[C@@H](O)[C@H](O)[C@H]3O)[C@@H](O)[C@H]2O)[C@H](OC(=O)[C@]23CCC(C)(C)C[C@H]2C2=CC[C@@H]4[C@@]5(C)CC[C@H](O[C@@H]6O[C@H](C(=O)O)[C@@H](O)[C@H](O[C@@H]7OC[C@@H](O)[C@H](O)[C@H]7O)[C@H]6O[C@@H]6O[C@H](CO)[C@H](O)[C@H](O)[C@H]6O)[C@@](C)(C=O)[C@H]5CC[C@@]4(C)[C@]2(C)CC3)O[C@@H]1C [squarroside A]
immunomodulating effect, lymphoproliferative test (concentrations in the pg range): stimulant effect
immunomodulating effect, lymphoproliferative test (concentrations in the μg range): suppressive effect
immunomodulating activity, lymphoproliferative test (dose-dependent): immunomodulating activity
